One test addresses B-Raf (V600E) (Homo sapiens (Human), UniProt P15056, V600E). The test is described as follows: Raf IC50 assay, time-resolved fluorescence energy transfer, B-Raf (V600E). The test is classed as biochemical. Particulars: 0.1 mM ATP; read-out: IC50 (nM) B_Raf^V600E.
The subject of a further test is A375. As to the kind of experiment: Anti-proliferative activity EC50 assay (CellTiter-Glo) in A375. The test is classed as cell-based. Particulars: Homo sapiens, A-375, 72 h; 3-day exposure; read-out: Cell Proliferation EC50 (nM) A375. Here is the method:
The growth-inhibitory activity of compounds in A375 and p61-A375, was determined using CellTiter-Glo luminescent cell viability assay (Promega). The 2,000 cells were seeded per well of a 96-well plate to ensure logarithmic growth could occur over the 3 days treatment period. Cells were left to attach for 16 hours, cells were treated in duplicate with a 10-point dilution series. Following a 3-day exposure to compounds disclosed herein, a volume of CellTiter-Glo reagent equal to the volume of cell culture medium present in each well was added. Mixture was mixed on an orbital shaker for 2 minutes to allow cell lysis, followed by 10 minutes incubation at room temperature to allow stabilization of luminescent signal, which corresponded to quantitation of ATP and thus the quantitation of metabolically active cells. Luminescent signal was measured using Pherastar FS reader (BMG Labtech).
EC50 values for growth inhibition were calculated by fitting dose-dependent data to the four-parameter logistic model using GraphPad Prism software.
(In ATP-based viability assays light output follows the ATP content of the culture.)

B-Raf (V600E), sequence (P15056 whole entry V600E): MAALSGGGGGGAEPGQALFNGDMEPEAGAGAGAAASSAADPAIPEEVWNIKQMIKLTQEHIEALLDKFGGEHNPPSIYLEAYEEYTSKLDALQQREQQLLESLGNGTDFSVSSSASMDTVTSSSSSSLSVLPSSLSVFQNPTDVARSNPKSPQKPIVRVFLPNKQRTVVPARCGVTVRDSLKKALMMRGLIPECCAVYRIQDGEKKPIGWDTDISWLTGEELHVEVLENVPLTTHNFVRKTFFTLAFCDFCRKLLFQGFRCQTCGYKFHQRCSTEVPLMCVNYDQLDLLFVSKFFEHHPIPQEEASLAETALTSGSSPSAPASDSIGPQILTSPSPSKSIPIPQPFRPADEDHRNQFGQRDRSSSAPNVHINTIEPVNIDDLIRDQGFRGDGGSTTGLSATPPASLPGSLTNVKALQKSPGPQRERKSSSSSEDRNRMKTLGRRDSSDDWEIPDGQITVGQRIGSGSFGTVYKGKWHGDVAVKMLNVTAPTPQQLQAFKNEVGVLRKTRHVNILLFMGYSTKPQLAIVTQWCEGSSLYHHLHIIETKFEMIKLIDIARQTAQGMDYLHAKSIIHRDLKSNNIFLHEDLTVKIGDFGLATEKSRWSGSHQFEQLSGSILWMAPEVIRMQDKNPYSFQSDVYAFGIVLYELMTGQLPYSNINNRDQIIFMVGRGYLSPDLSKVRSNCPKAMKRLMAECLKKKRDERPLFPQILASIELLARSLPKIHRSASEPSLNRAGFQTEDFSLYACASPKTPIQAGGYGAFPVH
Description for B-Raf (V600E): The enzyme was incubated with the compounds at room temperature for 60 minutes and the reactions were initiated by the addition of ATP and GST-MEK1. After reaction at room temperature for 60 minutes, an equal volume of stop/detection solution was added according to the manufacture's instruction (CisBio Bioassays). […] The IC50 for each compound was derived from fitting the dose-response % inhibition data to the four-parameter logistic model by Graphpad Prism software.

`COc1ccc(NC(=O)N[C@@H]2[C@H]3Oc4ccc(Oc5ccnc6c5CCC(=O)N6)cc4[C@@H]23)c(Cl)c1` [Compound 1.4]: the IC50 (usually the concentration that inhibits the measured activity by half) on B-Raf (V600E) came out at 1.8 nM.

Consider `COc1ccc(Cl)c(NC(=O)N[C@@H]2[C@H]3Oc4ccc(Oc5ccnc6c5CCC(=O)N6)cc4[C@@H]23)c1` [Compound 1.5], for which the IC50 at B-Raf (V600E) came out at 2.2 nM. On the same count and under the same terms, then `O=C1CCc2c(Oc3ccc4c(c3)[C@H]3[C@H](NC(=O)Nc5cc(Br)ccc5Cl)[C@H]3O4)ccnc2N1` [Compound 1.8], with 8.7 nM; and `O=C1CCc2c(Oc3ccc4c(c3)[C@H]3[C@H](NC(=O)Nc5ccc(Br)cc5Cl)[C@H]3O4)ccnc2N1` [Compound 1.10], with 6.3 nM.

On to `O=C1CCc2c(Oc3ccc4c(c3)[C@H]3[C@H](NC(=O)Nc5cccc([N+](=O)[O-])c5)[C@H]3O4)ccnc2N1` [Compound 1.13], for which, at B-Raf (V600E), the IC50 was found to be 1.8 nM. Still for that read-out and setting: then `COc1ccc(NC(=O)N[C@@H]2[C@H]3Oc4ccc(Oc5ccnc6c5CCC(=O)N6)cc4[C@@H]23)cc1OC` [Compound 1.15], with 2.3 nM. The same measure, in the same setting: then `O=C1CCc2c(Oc3ccc4c(c3)[C@H]3[C@H](NC(=O)Nc5ccc6c(c5)CCC6)[C@H]3O4)ccnc2N1` [Compound 1.16], with 2.6 nM; and `COc1cc(NC(=O)N[C@@H]2[C@H]3Oc4ccc(Oc5ccnc6c5CCC(=O)N6)cc4[C@@H]23)cc(OC)c1` [Compound 1.17], with 1.5 nM; and `CC(C)(C)c1ccc(NC(=O)N[C@@H]2[C@H]3Oc4ccc(Oc5ccnc6c5CCC(=O)N6)cc4[C@@H]23)cc1` [Compound 1.18], with 16 nM. Take `Cc1cccc(Cl)c1NC(=O)N[C@@H]1[C@H]2Oc3ccc(Oc4ccnc5c4CCC(=O)N5)cc3[C@@H]12` [Compound 1.19]: the IC50 at B-Raf (V600E) was 5.1 nM. Moreover, the EC50 with A375 came to 503 nM.

Take `CN(C)Cc1ccc(NC(=O)N[C@@H]2[C@H]3Oc4ccc(Oc5ccnc6c5CCC(=O)N6)cc4[C@@H]23)cc1` [Compound 1.26]: the IC50 on B-Raf (V600E) was 2680 nM. As to `COc1cc(NC(=O)N[C@@H]2[C@H]3Oc4ccc(Oc5ccnc6c5CCC(=O)N6)cc4[C@@H]23)c(Cl)cc1Cl` [Compound 1.27], the concentration for half-maximal inhibition (IC50) on B-Raf (V600E) stood at 11 nM. Consider `O=C1CCc2c(Oc3ccc4c(c3)[C@H]3[C@H](NC(=O)Nc5ccc(C(F)(F)F)cc5)[C@H]3O4)ccnc2N1` [Compound 1.29], for which the IC50 on B-Raf (V600E) came out at 6.9 nM. In the test on A375, the EC50 was determined as 222 nM. Taken in the same sequence, the figures for `O=C1CCc2c(Oc3ccc4c(c3)[C@H]3[C@H](NC(=O)Nc5ccccc5C(F)(F)F)[C@H]3O4)ccnc2N1` [Compound 1.30] were 3 nM and 583 nM. As for `O=C1CCc2c(Oc3ccc4c(c3)[C@H]3[C@H](NC(=O)Nc5ccncn5)[C@H]3O4)ccnc2N1` [Compound 1.36], on B-Raf (V600E), the IC50 came out at 1.3 nM. Same read-out and setting: then `O=C1CCc2c(Oc3ccc4c(c3)[C@H]3[C@H](NC(=O)Nc5cc(Cl)ccn5)[C@H]3O4)ccnc2N1` [Compound 1.37], with 0.85 nM; and `O=C1CCc2c(Oc3ccc4c(c3)[C@H]3[C@H](NC(=O)Nc5ccc(C(F)(F)F)cn5)[C@H]3O4)ccnc2N1` [Compound 1.38], with 4 nM; and `Cc1ccncc1NC(=O)N[C@@H]1[C@H]2Oc3ccc(Oc4ccnc5c4CCC(=O)N5)cc3[C@@H]12` [Compound 1.39], with 2.6 nM. Consider `COc1ccc(NC(=O)N[C@@H]2[C@H]3Oc4ccc(Oc5ccnc6c5CCC(=O)N6)cc4[C@@H]23)cc1` [Compound 1.50], for which, at B-Raf (V600E), the IC50 stood at 0.8 nM. In the case of `O=C1CCc2c(Oc3ccc4c(c3)[C@H]3[C@H](NC(=O)NC5CCCC5)[C@H]3O4)ccnc2N1` [Compound 1.51], on B-Raf (V600E), the IC50 came out at 0.59 nM. For the same compound, the EC50 in the test with A375 worked out at 273 nM. The like results for `O=C1CCc2c(Oc3ccc4c(c3)[C@H]3[C@H](NC(=O)NCc5cccc(C(F)(F)F)c5)[C@H]3O4)ccnc2N1` [Compound 1.54] were, in that order, 1.9 nM and 2700 nM. Regarding `O=C1CCc2c(Oc3ccc4c(c3)[C@H]3[C@H](NC(=O)NCc5ccc(C(F)(F)F)cc5)[C@H]3O4)ccnc2N1` [Compound 1.56], the IC50 on B-Raf (V600E) came out at 158 nM. For `O=C1CCc2c(Oc3ccc4c(c3)[C@H]3[C@H](NC(=O)NCc5cccc(F)c5)[C@H]3O4)ccnc2N1` [Compound 1.58], at B-Raf (V600E), the IC50 was determined as 0.77 nM. In the test with A375, the EC50 came out at 534 nM. Take `O=C1CCc2c(Oc3ccc4c(c3)[C@H]3[C@H](NC(=O)NCc5ccc(F)cc5)[C@H]3O4)ccnc2N1` [Compound 1.59]: on B-Raf (V600E), the IC50 came to 0.84 nM. For the same compound, the EC50 in the test on A375 stood at 891 nM. Regarding `O=C1CCc2c(Oc3ccc4c(c3)[C@H]3[C@H](NC(=O)Nc5cccc(OC(F)(F)F)c5)[C@H]3O4)ccnc2N1` [Compound 1.60], the IC50 on B-Raf (V600E) was determined as 8.6 nM. Also, in the test on A375, the EC50 worked out at 193 nM. Taken in the same sequence, the figures for `O=C1CCc2c(Oc3ccc4c(c3)[C@H]3[C@H](NC(=O)Nc5ccc(OC(F)(F)F)cc5)[C@H]3O4)ccnc2N1` [Compound 1.61] were 7.4 nM and 975 nM. Taken in the same sequence, the figures for `O=C1CCc2c(Oc3ccc4c(c3)[C@H]3[C@H](NC(=O)Nc5ccccc5OC(F)(F)F)[C@H]3O4)ccnc2N1` [Compound 1.62] were 6.3 nM and 302 nM. In the case of `CN1CCN(Cc2ccc(NC(=O)N[C@@H]3[C@H]4Oc5ccc(Oc6ccnc7c6CCC(=O)N7)cc5[C@@H]34)cc2)CC1` [Compound 1.63], at B-Raf (V600E), the IC50 was > 5000 nM. Turning to `O=C1CCc2c(Oc3ccc4c(c3)[C@H]3[C@H](NC(=O)Nc5ccc(C(F)(F)F)c(F)c5)[C@H]3O4)ccnc2N1` [Compound 1.64], at B-Raf (V600E), the half-maximal inhibitory concentration (IC50) turned out to be 27 nM.

`O=C1CCc2c(Oc3ccc4c(c3)[C@H]3[C@H](NC(=O)Nc5cc(C(F)(F)F)cc(C(F)(F)F)c5)[C@H]3O4)ccnc2N1` [Compound 1.65]: on B-Raf (V600E), the IC50 came to 116 nM.

Take `O=C1CCc2c(Oc3ccc4c(c3)[C@H]3[C@H](NC(=O)NC5CCOCC5)[C@H]3O4)ccnc2N1` [Compound 1.67]: at B-Raf (V600E), the IC50 amounted to 4.2 nM. Further, the EC50 in the test on A375 amounted to 4170 nM. `CN1CCC(NC(=O)N[C@@H]2[C@H]3Oc4ccc(Oc5ccnc6c5CCC(=O)N6)cc4[C@@H]23)CC1` [Compound 1.68]: at B-Raf (V600E), the IC50 was 20 nM. The same measure, in the same setting: then `O=C1CCc2c(Oc3ccc4c(c3)[C@H]3[C@H](NC(=O)NC5CC5)[C@H]3O4)ccnc2N1` [Compound 1.69], with 30 nM; and `O=C1CCc2c(Oc3ccc4c(c3)[C@@H]3[C@@H](NC(=O)Nc5cc(C(F)(F)F)ccn5)[C@@H]3O4)ccnc2N1` [Compound 1.72], with 1.9 nM.

For the compound `CCN1CCN(Cc2ccc(NC(=O)N[C@@H]3[C@H]4Oc5ccc(Oc6ccnc7c6CCC(=O)N7)cc5[C@@H]34)cc2F)CC1` [Compound 1.74], the IC50 on B-Raf (V600E) amounted to 821 nM. For `O=C1CCc2c(Oc3ccc4c(c3)[C@H]3C(NC(=O)NCc5ccc(F)cc5C(F)(F)F)[C@H]3O4)ccnc2N1` (stereo partly drawn) [Compound 1.76], the IC50 on B-Raf (V600E) was 3.4 nM. Moreover, the EC50 with A375 was determined as 1310 nM.

As for `CCCCCCCCCCNC(=O)N[C@@H]1[C@H]2Oc3ccc(Oc4ccnc5c4CCC(=O)N5)cc3[C@@H]12` [Compound 1.85], on B-Raf (V600E), the IC50 stood at 129 nM.

As to `CN1CCN(c2ccc(NC(=O)N[C@@H]3[C@H]4Oc5ccc(Oc6ccnc7c6CCC(=O)N7)cc5[C@@H]34)cc2C(F)(F)F)CC1` [Compound 1.86, 1-(4-(4-methylpiperazin-1-yl)-3-(trifluoromethyl)phenyl)-3-((1S,1aS,6bS)-5-((7-oxo-5,6,7,8-tetrahydro-1,8-naphthyridin-4-yl)oxy)-1a,6b-dihydro-1H-cyclopropa[b]benzofuran-1-yl)urea], the IC50 at B-Raf (V600E) stood at 183 nM. Same read-out and setting: in the case of `CCN1CCN(c2ccc(NC(=O)N[C@@H]3[C@H]4Oc5ccc(Oc6ccnc7c6CCC(=O)N7)cc5[C@@H]34)cc2C(F)(F)F)CC1` [Compound 1.87] it was 227 nM; in that of `O=C(Nc1ccc(F)cc1F)N[C@@H]1[C@H]2Oc3ccc(Oc4ccncn4)cc3[C@@H]12` [Compound 2.1, 1-(2,4-difluorophenyl)-3-((1S,1aS,6bS)-5-(pyrimidin-4-yloxy)-1a,6b-dihydro-1H-cyclopropa[b]benzofuran-1-yl)urea], 1100 nM; in that of `O=C(Nc1ccc(F)c(F)c1)N[C@@H]1[C@H]2Oc3ccc(Oc4ccncn4)cc3[C@@H]12` [Compound 2.2], 111 nM. Still for that read-out and setting: in the case of `O=C(Nc1ccc(F)c(C(F)(F)F)c1)N[C@@H]1[C@H]2Oc3ccc(Oc4ccncc4)cc3[C@@H]12` [Compound 2.9] it was 24 nM; in that of `O=C(Nc1cc(F)c(F)cc1F)N[C@@H]1[C@H]2Oc3ccc(Oc4ccncc4)cc3[C@@H]12` [Compound 2.10], 50 nM. On the same count and under the same terms, in the case of `O=C(Nc1cccc(C(F)(F)F)c1)N[C@@H]1[C@H]2Oc3ccc(Oc4ccncc4)cc3[C@@H]12` [Compound 2.11] it was 58 nM. With `O=C(Nc1ccc(F)c(C(F)(F)F)c1)N[C@@H]1[C@H]2Oc3ccc(Oc4ncnc5[nH]cnc45)cc3[C@@H]12` [Compound 2.12, 1-((1S,1aS,6bS)-5-((9H-purin-6-yl)oxy)-1a,6b-dihydro-1H-cyclopropa[b]benzofuran-1-yl)-3-(4-fluoro-3-(trifluoromethyl)phenyl)urea], at B-Raf (V600E), the IC50 was determined as 10 nM. Still for that read-out and setting: then `O=C(Nc1ccc(F)cc1F)N[C@@H]1[C@H]2Oc3ccc(Oc4ncnc5[nH]cnc45)cc3[C@@H]12` [Compound 2.13], with 24 nM; and `Nc1cc(Oc2ccc3c(c2)[C@H]2[C@H](NC(=O)Nc4ccc(F)cc4F)[C@H]2O3)ccn1` [Compound 2.14, 1-((1S,1aS,6bS)-5-((2-aminopyridin-4-yl)oxy)-1a,6b-dihydro-1H-cyclopropa[b]benzofuran-1-yl)-3-(2,4-difluorophenyl)urea], with 36 nM; and `CNC(=O)c1cc(Oc2ccc3c(c2)[C@H]2[C@H](NC(=O)Nc4ccc(Cl)c(C(F)(F)F)c4)[C@H]2O3)ccn1` [Compound 2.16], with 88 nM.

These data come from patent US9670203B2 (BeiGene, LTD., priority 2013, dated 2017).
